According to patent US20260355196A1, “INHIBITORS AND DEGRADERS OF PIP4K PROTEIN” (Larkspur Biosciences, Inc., priority 2023, published 2026):

Target: T1, PIP4K2C (Homo sapiens, UniProt Q8TBX8)
T1 sequence (Q8TBX8 1-421): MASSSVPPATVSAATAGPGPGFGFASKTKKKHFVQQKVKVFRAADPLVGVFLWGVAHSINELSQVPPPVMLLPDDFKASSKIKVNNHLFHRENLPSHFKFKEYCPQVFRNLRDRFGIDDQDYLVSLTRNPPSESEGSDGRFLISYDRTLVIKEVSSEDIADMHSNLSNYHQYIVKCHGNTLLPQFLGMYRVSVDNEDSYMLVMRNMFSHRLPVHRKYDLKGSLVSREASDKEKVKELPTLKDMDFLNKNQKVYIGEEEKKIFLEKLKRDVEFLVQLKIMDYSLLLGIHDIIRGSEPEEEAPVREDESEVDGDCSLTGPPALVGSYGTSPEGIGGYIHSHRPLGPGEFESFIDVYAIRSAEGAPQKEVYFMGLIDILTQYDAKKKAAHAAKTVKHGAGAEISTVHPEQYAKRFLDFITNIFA
Test: HiBiT PIP4K2C degradation assay in MOLT-4 cells (endogenous PIP4K2C C-terminally tagged with HiBiT)
Format: cell-based
Set-up: untagged in primary human PBMCs and monocyte-derived dendritic cells
Conditions: 6 hours of incubation time, rather than 24 hours; MOLT-4, top concentration 10 micromolar; read-out: HiBIT-degradation MOLT4 PIP4k2C DC50 (6 hours, marked *)
In short: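 DC50 derived by Hill fit of luminescence from Nano-Glo HiBiT lytic detection. Cells were HiBiT knock-in MOLT-4 (C-terminal tag on endogenous PIP4K2C), exposed 6 h or 24 h at 37 C to compound, top concentration 10 micromolar, 3-fold steps, 10 points, duplicates.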

Row | DC50 | Structure (SMILES)
1 | < 500 nM | O=C1CCC(Nc2ccc(N3CCC(CN4CCN(C(=O)[C@H]5CC[C@H](Nc6ncc(F)c(-c7cccc(-n8ccccc8=O)c7)n6)CC5)CC4)CC3)c(F)c2)C(=O)N1 (stereo partly drawn) [Compound 387, trans-3-((3-fluoro-4-(4-((4-(4-((5-fluoro-4-(3-(2-oxopyridin-1(2H)-yl)phenyl)pyrimidin-2-yl)amino)cyclohexane-1-carbonyl)piperazin-1-yl)methyl)piperidin-1-yl)phenyl)amino)piperidine-2,6-dione]
2 | < 500 nM | O=C1CCC(Nc2ccc(C3CCN([C@H]4CC[C@H](C(=O)N[C@H]5CC[C@H](Nc6ncc(F)c(-c7cccc(C(=O)N8CC[C@H](O)C8)c7)n6)CC5)CC4)CC3)c(F)c2)C(=O)N1 (stereo partly drawn) [Compound 511, trans-4-(4-(4-((2,6-dioxopiperidin-3-yl)amino)-2-fluorophenyl)piperidin-1-yl)-N-(trans-4-((5-fluoro-4-(3-((S)-3-hydroxypyrrolidine-1-carbonyl)phenyl)pyrimidin-2-yl)amino)cyclohexyl)cyclohexane-1-carboxamide]
3 | < 500 nM | O=C1CCC(Nc2ccc(N3CCC(N4CCC(NC(=O)[C@H]5CC[C@H](Nc6ncc(F)c(-c7cccc(N8CCOCC8=O)c7)n6)CC5)CC4)C(F)C3)c(F)c2)C(=O)N1 (stereo partly drawn) [Compound 476, trans-N-(1′-(4-((2,6-dioxopiperidin-3-yl)amino)-2-fluorophenyl)-3′-fluoro-[1,4′-bipiperidin]-4-yl)-4-((5-fluoro-4-(3-(3-oxomorpholino)phenyl)pyrimidin-2-yl)amino)cyclohexane-1-carboxamide]
4 | < 500 nM | CN(C(=O)[C@H]1CC[C@H](N2CCN(c3ccc(NC4CCC(=O)NC4=O)cc3F)CC2)CC1)[C@H]1CC[C@H](Nc2ncc(F)c(-c3cccc(C4CC4)c3)n2)CC1 (stereo partly drawn) [Compound 478, trans-N-((trans)-4-((4-(3-cyclopropylphenyl)-5-fluoropyrimidin-2-yl)amino)cyclohexyl)-4-(4-(4-((2,6-dioxopiperidin-3-yl)amino)-2-fluorophenyl)piperazin-1-yl)-N-methylcyclohexane-1-carboxamide]

Same assay, conditions: 24 hours incubation, MOLT-4, top concentration 10 micromolar; read-out: HiBIT-degradation MOLT4 PIP4k2C 24 hours DC50

Row | DC50 | Structure (SMILES)
5 | < 500 nM | O=C1CCC(N2Cc3cc(C4CCN(C(=O)C5CCN(C(=O)[C@H]6CCC[C@@H](Nc7ncc(Cl)c(-c8cccc(-c9ccccc9)c8)n7)C6)CC5)CC4)ccc3C2=O)C(=O)N1 (relative stereo) [Compound 60, cis-3-(5-(1-(1-(3-((4-([1,1′-biphenyl]-3-yl)-5-chloropyrimidin-2-yl)amino)cyclohexane-1-carbonyl)piperidine-4-carbonyl)piperidin-4-yl)-1-oxoisoindolin-2-yl)piperidine-2,6-dione]
6 | < 500 nM | Cn1c(=O)n(C2CCC(=O)NC2=O)c2ccc(C3CCN(CC4CCN(CC(=O)N5CCC(Nc6ncc(F)c(-c7cccc(-n8ccccc8=O)c7)n6)CC5)CC4)CC3)cc21 (stereo not shown) [Compound 312, 3-(5-(1-((1-(2-(4-((5-fluoro-4-(3-(2-oxopyridin-1(2H)-yl)phenyl)pyrimidin-2-yl)amino)piperidin-1-yl)-2-oxoethyl)piperidin-4-yl)methyl)piperidin-4-yl)-3-methyl-2-oxo-2,3-dihydro-1H-benzo[d]imidazol-1-yl)piperidine-2,6-dione]
7 | < 500 nM | Cn1c(=O)n(C2CCC(=O)NC2=O)c2ccc(C3CCN(C(=O)CN4CCN(C(=O)[C@H]5CCC[C@@H](Nc6ncc(Cl)c(-c7cccc(-c8ccccc8)c7)n6)C5)CC4)CC3)cc21 (relative stereo) [Compound 58, cis-3-(5-(1-(2-(4-(3-((4-([1,1′-biphenyl]-3-yl)-5-chloropyrimidin-2-yl)amino)cyclohexane-1-carbonyl)piperazin-1-yl)acetyl)piperidin-4-yl)-3-methyl-2-oxo-2,3-dihydro-1H-benzo[d]imidazol-1-yl)piperidine-2,6-dione]
